According to patent US8906925B2, “Pyrido[4,3-B]indoles containing rigid moieties” (Medivation Technologies, Inc., priority 2008, dated 2014):
“And” between values parts separate entries of the source, which are not always exact repeats. Equal values may be shown once.

Assays:
[1] = target: human dopamine D2L receptor (Homo sapiens, UniProt P14416); assay: Dopamine D2L [35S]GTPγS functional assay (SPA, CHO membranes); assay type: biochemical; settings: read-out: D2L GTPgS % Inhibition
Procedure: To determine for agonist or antagonist activity of compounds of the invention in functional assays, human recombinant dopamine D2L receptor stably expressed in Chinese hamster ovary (CHO) cells (Senogles S E et al. J Biol Chem. 265(8): 4507, 1990) was used. Compounds of invention were pre-incubated with the membranes (0.1 mg/mL) and 10 mM GDP in modified HEPES buffer (20 mM HEPES, pH 7.4, 100 mM NaCl, 10 mM MgCl2, 1 mM DTT, 1 mM EDTA) for 20 min. and Scintillation Proximity Assay (SPA) beads were added for another 60 min. at 30° C. The reaction was initiated by 0.3 nM [^35S]GTPγS for an additional 15 min. incubation period. […] Compounds were screened at […] or lower, using 0.4% DMSO as vehicle. Assay results are presented as the percent response of specific binding in Table 12.

[2] = target: T1, human recombinant serotonin 5-HT7 receptor (Homo sapiens, UniProt P34969); assay: 5-HT7 antagonist functional assay (cAMP, HTRF, CHO cells); assay type: cell-based; settings: vs 100 nM 5-HT
T1 construct: expressed in transfected cells; host or cells: CHO cells
From the text: To determine for agonist or antagonist activity of compounds of the invention in functional assays, human recombinant serotonin 5-HT2A receptor expressed in human embryonic kidney (HEK-293) cells (Jerman J C, Brough S J, Gager T, Wood M, Coldwell M C, Smart D and Middlemiss D N, Eur J Pharmacol, 414: 23-30, 2001) or human recombinant serotonin 5-HT7 receptor expressed in CHO cells (Adham, et al. J. Pharmacol. Exp. Ther. 287:508-514, 1998) was used. Cells were suspended in DMEM buffer, and distributed in microplates. For the 5-HT2A assay, a cytoplasmic calcium fluorescent indicator which varies proportionally to the free cytosolic Ca^2+ ion concentration was mixed with probenicid in HBSS buffer complemented with 20 mM Hepes (pH 7.4), added into each well and equilibrated with the cells for 30 min. at 37° C. followed by 30 min. at 22° C. For the 5-HT7 assay, the reaction product was cAMP, detected by HTRF.
The standard reference antagonist was ketanserin (5-HT2A) or mesulergine (5-HT7), which was tested in each experiment at several concentrations to generate a concentration-response curve from which its IC50 value was calculated. Compounds were screened at […] or lower, using DMSO as vehicle.

[3] = test system: rat mixed cortical cultures; assay: Neurite outgrowth in rat mixed cortical cultures; assay type: cell-based; settings: 50 nM, 48 h, vs vehicle
Procedure: Cortical mixed cultures are prepared from E18 Wistar rat embryos. The cortices are dissected out and the tissue was cut to small pieces. The cells are separated by 15-min. incubation with DNase and papain. The cells are collected by centrifugation (1500 rpm, 5 min.). The tissue is triturated with a pipette and the cells are plated using the micro-islet protocol (20 000 cells in […] medium) on poly-L-lysine coated 48 wells, in MEM supplemented with 2 mM glutamine, […] gentamicin, 10% heat-inactivated fetal bovine serum (FBS-HI) and 10% heat-inactivated horse serum (HS-HI). After the cells had attached to the well, 250 μl medium is added to the wells. […] BDNF levels in the conditioned media are determined with a BDNF ELISA using the manufacturers (Promega, BDNF Emax® ImmunoAssay System, catalog number: G7610) instructions.
The cultures are fixed with 4% formaldehyde in 0.01 M PBS for 30 min. and washed once with PBS. […] The immunopositive cells are visualized by a fluorescence microscope equipped with appropriate filter set, and documented by a high resolution image capturing. The number of cells per field (4 field per well) are counted, and the neurite outgrowth was quantified using Image Pro Plus software. […]
Compounds of the invention were evaluated on their effect on neurite outgrowth in rat mixed neuronal cultures. […]

human dopamine D2L receptor, sequence (P14416 whole entry): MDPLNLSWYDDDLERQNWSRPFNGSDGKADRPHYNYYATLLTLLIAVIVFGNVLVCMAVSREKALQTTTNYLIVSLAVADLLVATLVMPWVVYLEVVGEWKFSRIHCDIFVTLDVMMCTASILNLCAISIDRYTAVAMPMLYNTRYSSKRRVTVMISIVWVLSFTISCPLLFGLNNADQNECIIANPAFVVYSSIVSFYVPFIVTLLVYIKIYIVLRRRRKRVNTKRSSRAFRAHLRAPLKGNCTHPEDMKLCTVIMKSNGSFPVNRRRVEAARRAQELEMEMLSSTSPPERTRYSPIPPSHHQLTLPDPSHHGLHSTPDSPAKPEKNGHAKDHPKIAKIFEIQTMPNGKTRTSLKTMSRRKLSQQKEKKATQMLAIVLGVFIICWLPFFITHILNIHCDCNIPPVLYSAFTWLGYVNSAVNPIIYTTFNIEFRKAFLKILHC
T1 sequence (P34969 whole entry): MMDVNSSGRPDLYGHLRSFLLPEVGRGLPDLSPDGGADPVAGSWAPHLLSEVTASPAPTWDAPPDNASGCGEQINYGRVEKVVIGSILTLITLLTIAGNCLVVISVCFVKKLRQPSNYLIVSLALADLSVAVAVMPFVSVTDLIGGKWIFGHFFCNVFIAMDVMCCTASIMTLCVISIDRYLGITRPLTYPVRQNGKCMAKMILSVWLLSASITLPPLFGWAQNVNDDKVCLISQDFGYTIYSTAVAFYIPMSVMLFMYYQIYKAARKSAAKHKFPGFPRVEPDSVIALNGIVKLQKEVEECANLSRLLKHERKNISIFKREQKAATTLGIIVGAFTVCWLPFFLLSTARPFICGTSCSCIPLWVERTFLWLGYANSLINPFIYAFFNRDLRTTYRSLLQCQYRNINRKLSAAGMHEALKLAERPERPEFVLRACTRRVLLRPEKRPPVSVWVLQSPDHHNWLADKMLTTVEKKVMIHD

inhibition at 0.001 µM ([1]; conc. 1 nM): 16% | inhibition at 0.003 µM ([1]; conc. 3 nM): 28% | inhibition at 0.01 µM ([1]; conc. 10 nM): 49% | inhibition at 0.03 µM ([1]; conc. 30 nM): 55% | inhibition at 0.1 µM ([1]; conc. 100 nM): 77% | IC50 [2]: 460 nM and 770 nM
Structure (SMILES): C/C(=C\n1c2c(c3cc(Cl)ccc31)CN(C)CC2)c1ccc(F)cc1 [Compound 83, (E)-8-chloro-5-(2-(4-fluorophenyl)prop-1-enyl)-2,3,4,5-tetrahydro-2-methyl-1H-pyrido[4,3-b]indole]
Mean Process+Branch Number (number of branched processes) [3]: significantly increased
